What follows are molecules tested on Human Jurkat T-cells (clone N) (assay: Jurkat T-cell activation (anti-TCR, CD69 upregulation)). Settings: not given.
Format: cell-based
Method in brief: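 Jurkat cells in RPMI + 5% FBS preincubated with compound 1 h at 37 °C, then stimulated with anti-TCR C305 at 500 ng/ml for 20 h. CD69 surface expression stained with anti-CD69-APC and read by flow cytometry; IC50 versus solvent-only control.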
`CCOC(=O)C(C)(C)c1ccc(Nc2nc(Nc3ccc(OC(C)C)cc3)ncc2F)cc1` [Compound R935167] showed an IC50 of over 10 µM.
With `CCOC(=O)C(C)(C)c1ccc(Nc2nc(Nc3cccc(O)c3)ncc2F)cc1` [Compound R935169] the IC50 was 7.54 µM.
`CC(C)(CO)c1ccc(Nc2ncc(F)c(Nc3cccc(O)c3)n2)cc1` [Compound R935171] was tested, and the IC50 was 3.93 µM.
In the case of `CC(C)(CO)c1ccc(Nc2nc(Nc3ccc4c(c3)OCCO4)ncc2F)cc1` [Compound R935173], the IC50 is reported as 3.91 µM.
In the case of `CC(C)(CO)c1ccc(Nc2ncc(F)c(Nc3ccc4oc(CO)cc4c3)n2)cc1` [Compound R935177], the IC50 is reported as 4.15 µM.
`OCC(O)COc1ccc(Nc2ncc(F)c(Nc3ccc4c(c3)OCCO4)n2)cc1` (stereo not shown) [Compound R935179] showed an IC50 of 3 µM.
In the case of `COC(=O)COc1ccc(Nc2ncc(F)c(Nc3ccc4c(c3)OCCCO4)n2)cc1` [Compound R935182], the IC50 is reported as 23.9 µM.
In the case of `OCCOc1ccc(Nc2ncc(F)c(Nc3ccc4c(c3)OCCCO4)n2)cc1` [Compound R935183], the IC50 is reported as 2.27 µM.
Molecule `CNC(=O)COc1ccc(Nc2ncc(F)c(Nc3ccc4c(c3)OCCCO4)n2)cc1` [Compound R935184] has an IC50 of 4.08 µM.
In the case of `COC(=O)COc1cccc(Nc2ncc(F)c(Nc3ccc4c(c3)OCCCO4)n2)c1` [Compound R935185], the IC50 is reported as 4.11 µM.
`CCOC(=O)C(C)(Oc1cccc(Nc2nc(Nc3ccc(OC(C)C)cc3)ncc2F)c1)C(=O)OCC` [Compound R935187] showed an IC50 of over 10 µM.
For `Fc1cnc(Nc2ccc3cn[nH]c3c2)nc1Nc1ccc2cn[nH]c2c1` [Compound R935188], the IC50 was 1.8 µM.
`Fc1cnc(Nc2ccc3cn[nH]c3c2)nc1Nc1ccc2c(c1)OCCO2` [Compound R935190] showed an IC50 of 3.47 µM.
In the case of `Oc1cccc(Nc2nc(Nc3ccc4cn[nH]c4c3)ncc2F)c1` [Compound R935191], the IC50 is reported as 2.94 µM.
For `Cn1ncc2cc(Nc3ncc(F)c(Nc4ccc5c(cnn5C)c4)n3)ccc21` [Compound R935192], the IC50 was 5.39 µM.
In the case of `Cn1ncc2cc(Nc3ncc(F)c(Nc4cccc(O)c4)n3)ccc21` [Compound R935194], the IC50 is reported as 0.732 µM.
`CNC(=O)C(C)(Oc1cccc(Nc2ncc(F)c(Nc3ccc(OC(C)C)cc3)n2)c1)C(=O)NC` [Compound R935196] was tested, and the IC50 was 1.1 µM.
For `CC(C)Oc1ccc(Nc2nc(Nc3ccc4[nH]ncc4c3)ncc2F)cc1` [Compound R935197], the IC50 was 2.43 µM.
With `Fc1cnc(Nc2ccc3[nH]ncc3c2)nc1Nc1ccc2c(c1)OCCO2` [Compound R935198] the IC50 was 1.45 µM.
With `Oc1cccc(Nc2nc(Nc3ccc4[nH]ncc4c3)ncc2F)c1` [Compound R935199] the IC50 was 2.51 µM.
For `CC(C)Oc1ccc(Nc2ncc(F)c(Nc3ccc4c(cnn4C)c3)n2)cc1` [Compound R935203], the IC50 was over 10 µM.
Work on `Cn1ncc2cc(Nc3nc(Nc4cccc(O)c4)ncc3F)ccc21` [Compound R935204] yielded an IC50 of 3.87 µM.
In the case of `COC(=O)Cn1ncc2ccc(Nc3ncc(F)c(Nc4ccc5cnn(CC(=O)OC)c5c4)n3)cc21` [Compound R935205], the IC50 is reported as 10.7 µM.
Work on `CNC(=O)Cn1ncc2ccc(Nc3ncc(F)c(Nc4ccc5cnn(CC(=O)NC)c5c4)n3)cc21` [Compound R935206] yielded an IC50 of over 10 µM.
`COC(=O)c1cc(COc2cccc(Nc3ncc(F)c(Nc4ccc5c(c4)OCCO5)n3)c2)co1` [Compound R935207] gave an IC50 of over 10 µM.
`COC(=O)Cn1ncc2ccc(Nc3ncc(F)c(Nc4ccc5c(c4)OCCO5)n3)cc21` [Compound R935208] showed an IC50 of 2.88 µM.
`COC(=O)COc1ccc(Nc2ncc(F)c(Nc3ccc4c(cnn4C)c3)n2)cc1` [Compound R935209] was tested, and the IC50 was over 10 µM.
Molecule `COC(=O)Cn1ncc2cc(Nc3ncc(F)c(Nc4ccc5c(cnn5CC(=O)OC)c4)n3)ccc21` [Compound R935211] has an IC50 of 7.06 µM.
`CNC(=O)Cn1ncc2ccc(Nc3ncc(F)c(Nc4ccc5c(c4)OCCO5)n3)cc21` [Compound R935212] was tested, and the IC50 was 4.68 µM.
`CNC(=O)c1cc(COc2cccc(Nc3ncc(F)c(Nc4ccc5c(c4)OCCO5)n3)c2)co1` [Compound R935213] showed an IC50 of 3.09 µM.
`COc1cc(Nc2ncc(F)c(Nc3ccc4c(cnn4C)c3)n2)cc(OC)c1` [Compound R935214] showed an IC50 of 1.38 µM.
For `COC(=O)Cn1ncc2ccc(Nc3ncc(F)c(Nc4cccc(O)c4)n3)cc21` [Compound R935215], the IC50 was 7.96 µM.
`CNC(=O)COc1ccc(Nc2ncc(F)c(Nc3ccc4c(cnn4C)c3)n2)cc1` [Compound R935216] gave an IC50 of 3.48 µM.
With `CNC(=O)Cn1ncc2cc(Nc3ncc(F)c(Nc4ccc5c(cnn5CC(=O)NC)c4)n3)ccc21` [Compound R935217] the IC50 was over 10 µM.
`COC(=O)Cn1ncc2ccc(Nc3nc(Nc4ccc(OC(C)C)cc4)ncc3F)cc21` [Compound R935218] was tested, and the IC50 was 22.7 µM.
Molecule `COC(=O)Cn1ncc2ccc(Nc3nc(Nc4ccc5c(c4)OCCO5)ncc3F)cc21` [Compound R935219] has an IC50 of 5.57 µM.
For `COC(=O)Cn1ncc2ccc(Nc3nc(Nc4cccc(O)c4)ncc3F)cc21` [Compound R935220], the IC50 was 8.07 µM.
Molecule `Cn1nc(I)c2cc(Nc3ncc(F)c(Nc4ccc(I)c(O)c4I)n3)ccc21` [Compound R935221] has an IC50 of over 10 µM.
Molecule `COC(=O)Cn1ncc2cc(Nc3ncc(F)c(Nc4ccc(OC(C)C)cc4)n3)ccc21` [Compound R935222] has an IC50 of 3.54 µM.
In the case of `COC(=O)Cn1ncc2cc(Nc3ncc(F)c(Nc4ccc5c(c4)OCCO5)n3)ccc21` [Compound R935223], the IC50 is reported as 4.57 µM.
`CNC(=O)Cn1ncc2ccc(Nc3nc(Nc4ccc(OC(C)C)cc4)ncc3F)cc21` [Compound R935224] was tested, and the IC50 was over 10 µM.
Work on `CNC(=O)Cn1ncc2ccc(Nc3nc(Nc4ccc5c(c4)OCCO5)ncc3F)cc21` [Compound R935225] yielded an IC50 of 7.42 µM.
Molecule `COC(=O)Cn1ncc2cc(Nc3ncc(F)c(Nc4cccc(O)c4)n3)ccc21` [Compound R935237] has an IC50 of over 10 µM.
For `OCCn1ncc2ccc(Nc3ncc(F)c(Nc4ccc5cnn(CCO)c5c4)n3)cc21` [Compound R935238], the IC50 was 6.73 µM.
`CNC(=O)Cn1ncc2cc(Nc3ncc(F)c(Nc4ccc(OC(C)C)cc4)n3)ccc21` [Compound R935239] gave an IC50 of 1.73 µM.
`CNC(=O)Cn1ncc2cc(Nc3ncc(F)c(Nc4ccc5c(c4)OCCO5)n3)ccc21` [Compound R935240] showed an IC50 of 2.71 µM.
In the case of `COC(=O)Cn1ncc2cc(Nc3nc(Nc4ccc(OC(C)C)cc4)ncc3F)ccc21` [Compound R935242], the IC50 is reported as over 10 µM.
`OCCn1ncc2ccc(Nc3ncc(F)c(Nc4ccc5c(c4)OCCO5)n3)cc21` [Compound R935248] was tested, and the IC50 was 1.9 µM.
`COC(=O)Cn1ncc2cc(Nc3nc(Nc4ccc5c(c4)OCCO5)ncc3F)ccc21` [Compound R935249] showed an IC50 of 4.83 µM.
`COC(=O)Cn1ncc2cc(Nc3nc(Nc4cccc(O)c4)ncc3F)ccc21` [Compound R935250] gave an IC50 of 6.24 µM.
Molecule `CC(C)Oc1ccc(Nc2nc(Nc3ccc4c(cnn4CCO)c3)ncc2F)cc1` [Compound R935255] has an IC50 of 0.668 µM.
Work on `OCCn1ncc2cc(Nc3ncc(F)c(Nc4cccc(O)c4)n3)ccc21` [Compound R935256] yielded an IC50 of 0.92 µM.
For `OCCn1ncc2cc(Nc3nc(Nc4ccc5c(c4)OCCO5)ncc3F)ccc21` [Compound R935258], the IC50 was 6.26 µM.
Molecule `OCCn1ncc2cc(Nc3nc(Nc4cccc(O)c4)ncc3F)ccc21` [Compound R935259] has an IC50 of 3.46 µM.
Molecule `Fc1cnc(Nc2ccc3c(c2)OCCO3)nc1Nc1ccc2cn[nH]c2c1` [Compound R935261] has an IC50 of 2.18 µM.
`Oc1cccc(Nc2ncc(F)c(Nc3ccc4cn[nH]c4c3)n2)c1` [Compound R935262] was tested, and the IC50 was 3.11 µM.
Molecule `Cc1cc(Nc2ncc(F)c(Nc3ccc4cn[nH]c4c3)n2)cc(Cl)c1O` [Compound R935264] has an IC50 of 1.41 µM.
`CC(C)Oc1ccc(Nc2ncc(F)c(Nc3ccc4[nH]ncc4c3)n2)cc1` [Compound R935266] gave an IC50 of over 10 µM.
Work on `Fc1cnc(Nc2ccc3c(c2)OCCO3)nc1Nc1ccc2[nH]ncc2c1` [Compound R935267] yielded an IC50 of 3.93 µM.
Work on `Oc1cccc(Nc2ncc(F)c(Nc3ccc4[nH]ncc4c3)n2)c1` [Compound R935268] yielded an IC50 of 2.91 µM.
In the case of `COC(=O)COc1cccc(Nc2ncc(F)c(Nc3ccc4[nH]ncc4c3)n2)c1` [Compound R935269], the IC50 is reported as 7.58 µM.
`CNC(=O)COc1cccc(Nc2ncc(F)c(Nc3ccc4c(c3)-n3ccnc3CO4)n2)c1` [Compound R935271] showed an IC50 of 0.858 µM.
`CNC(=O)COc1cccc(Nc2ncc(F)c(Nc3ccc4[nH]ncc4c3)n2)c1` [Compound R935279] gave an IC50 of 1.98 µM.
With `CCOC(=O)CCn1ncc2ccc(Nc3ncc(F)c(Nc4ccc5c(c4)OCCO5)n3)cc21` [Compound R935286] the IC50 was 2.5 µM.
For `OCCCn1ncc2ccc(Nc3ncc(F)c(Nc4ccc5c(c4)OCCO5)n3)cc21` [Compound R935287], the IC50 was 1.7 µM.
In the case of `CC(C)Oc1ccc(Nc2nc(Nc3ccc4cnn(CCCO)c4c3)ncc2F)cc1` [Compound R935290], the IC50 is reported as 3.43 µM.
`CNC(=O)CCn1ncc2ccc(Nc3ncc(F)c(Nc4ccc(OC(C)C)cc4)n3)cc21` [Compound R935291] gave an IC50 of 3.14 µM.
For `OCCCn1ncc2ccc(Nc3ncc(F)c(Nc4cccc(O)c4)n3)cc21` [Compound R935293], the IC50 was 1.34 µM.
`CNC(=O)CCn1ncc2ccc(Nc3ncc(F)c(Nc4cccc(O)c4)n3)cc21` [Compound R935294] was tested, and the IC50 was 8.16 µM.
`COC(=O)c1cc2cc(Nc3ncc(F)c(Nc4ccc5cnn(CCC(=O)O)c5c4)n3)ccc2o1` [Compound R935296] showed an IC50 of over 10 µM.

Same assay, conditions: Homo sapiens, Jurkat
In the case of `CC(C)Oc1ccc(Nc2ncc(F)c(Nc3ccc(C(C)(C)CO)cc3)n2)cc1` [Compound R935168], the IC50 is reported as 3.71 µM.
In the case of `OCCOc1cccc(Nc2nc(Nc3cccc(O)c3)ncc2F)c1` [Compound R935170], the IC50 is reported as 6.03 µM.
In the case of `CCOC(=O)C(C)(C)c1ccc(Nc2nc(Nc3ccc4c(c3)OCCO4)ncc2F)cc1` [Compound R935172], the IC50 is reported as over 10 µM.
Work on `OCCOc1ccc(Nc2ncc(F)c(Nc3ccc4oc(CO)cc4c3)n2)cc1` [Compound R935174] yielded an IC50 of 3.99 µM.
`CC(C)Oc1ccc(Nc2nc(Nc3ccc(OCC(O)CO)cc3)ncc2F)cc1` (stereo not shown) [Compound R935175] showed an IC50 of 1.74 µM.
`OCCOc1cccc(Nc2nc(Nc3ccc4c(c3)OCCO4)ncc2F)c1` [Compound R935176] showed an IC50 of 1.98 µM.
Molecule `OCCOc1cccc(Nc2ncc(F)c(Nc3ccc4oc(CO)cc4c3)n2)c1` [Compound R935178] has an IC50 of 3.04 µM.
For `OCC(O)COc1ccc(Nc2ncc(F)c(Nc3cccc(O)c3)n2)cc1` (stereo not shown) [Compound R935180], the IC50 was 3.57 µM.
For `CC1(Cl)CC(Nc2ncc(F)c(Nc3ccc4c(c3)-n3ccnc3CO4)n2)=CC=C1O` (stereo not shown) [Compound R935263], the IC50 was 2.02 µM.
